This note sets out measurements from patent US12492181B2, “Gem-disubstituted piperidine melanocortin subtype-2 receptor (MC2R) antagonists and uses thereof” (Crinetics Pharmaceuticals, Inc., priority 2019, dated 2025).

In this test the target is T1, hMC2 receptor (crude hMC2R membranes from CRE-bla-CHO-K1 cells stably expressing hMC2 receptor and hMRAP accessory protein) (Homo sapiens, UniProt Q01718).
T1 construct: crude membrane fractions
T1 sequence (Q01718 whole entry): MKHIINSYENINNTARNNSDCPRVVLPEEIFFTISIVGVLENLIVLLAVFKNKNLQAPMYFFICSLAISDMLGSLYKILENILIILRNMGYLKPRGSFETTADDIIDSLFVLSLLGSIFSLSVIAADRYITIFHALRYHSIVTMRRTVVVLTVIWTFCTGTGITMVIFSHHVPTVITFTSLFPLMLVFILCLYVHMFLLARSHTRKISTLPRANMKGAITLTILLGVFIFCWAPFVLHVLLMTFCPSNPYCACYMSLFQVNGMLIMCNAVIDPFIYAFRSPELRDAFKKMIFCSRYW
T1 sequence (Q8TCY5 whole entry partner): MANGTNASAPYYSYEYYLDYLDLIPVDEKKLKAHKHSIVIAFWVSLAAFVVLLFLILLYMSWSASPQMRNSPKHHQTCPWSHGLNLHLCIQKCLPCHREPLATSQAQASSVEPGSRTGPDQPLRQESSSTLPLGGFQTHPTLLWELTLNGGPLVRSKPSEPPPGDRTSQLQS
The experiment in a line: hMC2 membrane binding assay ([125I]ACTH (1-39) Tyr23, SPA). The conditions noted are these: displacement of 0.2 nM [125I]ACTH (1-39) Tyr23 from hMC2R membranes, 1.5 hours at room temperature; read-out: MC2R binding potency. Put shortly: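 Crude membranes from CRE-bla-CHO-K1 cells stably co-expressing hMC2R and hMRAP, premixed with WGA PVT SPA beads in pH 7.4 HEPES buffer (5 mM MgCl2, 1 mM CaCl2, 0.20% BSA, protease inhibitors). Compounds compete with [125I]ACTH(1-39) Tyr23, read by scintillation. Ki from non-linear regression.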
As for `CN1CC[C@@H](NC(=O)C2(c3ccc(-c4cccn4C)nc3)CCN(c3ccc(C(F)(F)F)cc3C#N)CC2)C1` [Compound 1-88, 1-[2-cyano-4-(trifluoromethyl)phenyl]-4-[6-(1-methyl-1H-pyrrol-2-yl)pyridin-3-yl]-N-[(3R)-1-methylpyrrolidin-3-yl]piperidine-4-carboxamide], the Ki is < 10 nM. On to `CCOc1ncccc1-c1ccc(C2(NC(=O)O[C@@H]3CCN(C)C3)CCN(c3ccc(C(F)(F)F)cc3C#N)CC2)cc1` [Compound 2-12, (3R)-1-methylpyrrolidin-3-yl N-{1-[2-cyano-4-(trifluoromethyl)phenyl]-4-[4-(2-ethoxypyridin-3-yl)phenyl]piperidin-4-yl}carbamate], for which the Ki was 10 to 100 nM. In the case of `CCOc1ncccc1-c1ncc(C2(C(=O)N[C@@H](C)CN(C)C)CCN(c3ccc(C(F)(F)F)cc3F)CC2)cc1F` [Compound 1-312, N-[(2S)-1-(dimethylamino)propan-2-yl]-4-{2′-ethoxy-3-fluoro-[2,3′-bipyridin]-5-yl}-1-[2-fluoro-4-(trifluoromethyl)phenyl]piperidine-4-carboxamide], the Ki is < 10 nM. Consider `CCOc1ncccc1-c1ccc(C2(NC(=O)C3CN(C)C3)CCN(c3ccc(C(F)(F)F)cc3C#N)CC2)cc1` [Compound 2-16, N-{1-[2-cyano-4-(trifluoromethyl)phenyl]-4-[4-(2-ethoxypyridin-3-yl)phenyl]piperidin-4-yl}-1-methylazetidine-3-carboxamide], for which the Ki lay within 10 to 100 nM. Take `COc1ccccc1-c1ccc(C2(C(=O)N[C@@H]3CN(C)C[C@@H]3F)CCN(c3ccc(C(F)(F)F)cc3C#N)CC2)cn1` [Compound 1-242, 1-[2-cyano-4-(trifluoromethyl)phenyl]-N-[(3R,4S)-4-fluoro-1-methylpyrrolidin-3-yl]-4-[6-(2-methoxyphenyl)pyridin-3-yl]piperidine-4-carboxamide]: the Ki was < 10 nM. As to `CCOc1ccccc1-c1ccc(C2(NC(=O)CN(C)C)CCN(c3ccc(C(F)(F)F)cc3C#N)CC2)cn1` [Compound 2-34, N-{1-[2-cyano-4-(trifluoromethyl)phenyl]-4-[6-(2-ethoxyphenyl)pyridin-3-yl]piperidin-4-yl}-2-(dimethylamino)acetamide], the Ki was < 10 nM. Consider `CNCCC(=O)NC1(c2cnc(-c3ccccc3OC)c(F)c2)CCN(c2ccc(C(F)(F)F)cc2C#N)CC1` [Compound 2-63, N-{1-[2-cyano-4-(trifluoromethyl)phenyl]-4-[5-fluoro-6-(2-methoxyphenyl)pyridin-3-yl]piperidin-4-yl}-3-(methylamino)propanamide], for which the Ki is < 10 nM. `CNC[C@H](C)NC(=O)C1(c2ccc(-c3cccn3C)nc2)CCN(c2ccc(C(F)(F)F)cc2F)CC1` [Compound 1-298, 1-[2-fluoro-4-(trifluoromethyl)phenyl]-4-[6-(1-methyl-1H-pyrrol-2-yl)pyridin-3-yl]-N-[(2S)-1-(methylamino)propan-2-yl]piperidine-4-carboxamide]: the Ki was < 10 nM.

On to `CCOc1ncccc1-c1ccc(C2(C(=O)NC[C@H](C)N(C)C)CCN(c3ccc(C(F)(F)F)cc3C#N)CC2)cn1` [Compound 1-332, 1-[2-cyano-4-(trifluoromethyl)phenyl]-N-[(2S)-2-(dimethylamino)propyl]-4-{2′-ethoxy-[2,3′-bipyridin]-5-yl}piperidine-4-carboxamide], for which the Ki is < 10 nM. With `Cc1occc1-c1ccc(C2(C(=O)N[C@@H]3CCN(C)C3)CCN(c3ccc(C(F)(F)F)cc3C#N)CC2)cn1` [Compound 1-116, 1-[2-cyano-4-(trifluoromethyl)phenyl]-4-[6-(2-methylfuran-3-yl)pyridin-3-yl]-N-[(3R)-1-methylpyrrolidin-3-yl]piperidine-4-carboxamide], the Ki was < 10 nM. For `CCOc1ncccc1-c1ccc(C2(C(=O)N[C@H]3CCN(C)C3)CCN(c3ccc(Cl)cc3C#N)CC2)nn1` [Compound 1-139, 1-(4-chloro-2-cyanophenyl)-4-[6-(2-ethoxypyridin-3-yl)pyridazin-3-yl]-N-[(3S)-1-methylpyrrolidin-3-yl]piperidine-4-carboxamide], the Ki was < 10 nM.

For `CNCCNC(=O)C1(c2cnc(-c3cccnc3OC)c(F)c2)CCN(c2ccc(C(F)(F)F)cc2F)CC1` [Compound 1-301, 4-{3-fluoro-2′-methoxy-[2,3′-bipyridin]-5-yl}-1-[2-fluoro-4-(trifluoromethyl)phenyl]-N-[2-(methylamino)ethyl]piperidine-4-carboxamide], the Ki was < 10 nM. For `CCOc1ncccc1-c1ccc(C2(NC(=O)C3CN(C)C3)CCN(c3ccc(C(F)(F)F)cc3C#N)CC2)cn1` [Compound 2-32, N-{1-[2-cyano-4-(trifluoromethyl)phenyl]-4-{2′-ethoxy-[2,3′-bipyridin]-5-yl}piperidin-4-yl}-1-methylazetidine-3-carboxamide], the Ki was < 10 nM. In the case of `CN1CC[C@H](NC(=O)C2(c3ccc(-c4cccn4C)nn3)CCN(c3ccc(Cl)cc3C#N)CC2)C1` [Compound 1-170, 1-(4-chloro-2-cyanophenyl)-4-[6-(1-methyl-1H-pyrrol-2-yl)pyridazin-3-yl]-N-[(3S)-1-methylpyrrolidin-3-yl]piperidine-4-carboxamide], the Ki is < 10 nM.

For the molecule `CO[C@@H]1CN(C)C[C@H]1NC(=O)C1(c2ccc(-c3cccn3C)nc2)CCN(c2ccc(C(F)(F)F)cc2C#N)CC1` (racemic) [Compound 1-268, rac-1-[2-cyano-4-(trifluoromethyl)phenyl]-N-[(3R,4R)-4-methoxy-1-methylpyrrolidin-3-yl]-4-[6-(1-methyl-1H-pyrrol-2-yl)pyridin-3-yl]piperidine-4-carboxamide], the Ki was < 10 nM. For the molecule `CN1CC[C@](C)(NC(=O)C2(c3ccc(-c4cccn4C)nc3)CCN(c3ccc(C(F)(F)F)cc3C#N)CC2)C1` [Compound 1-253, 1-[2-cyano-4-(trifluoromethyl)phenyl]-N-[(3S)-1,3-dimethylpyrrolidin-3-yl]-4-[6-(1-methyl-1H-pyrrol-2-yl)pyridin-3-yl]piperidine-4-carboxamide], the Ki was < 10 nM. On to `CCOc1ccccc1-c1ncc(C2(C(=O)NCCN(C)C)CCN(c3ccc(C(F)(F)F)cc3F)CC2)cc1F` [Compound 1-289, N-[2-(dimethylamino)ethyl]-4-[6-(2-ethoxyphenyl)-5-fluoropyridin-3-yl]-1-[2-fluoro-4-(trifluoromethyl)phenyl]piperidine-4-carboxamide], for which the Ki is < 10 nM. For the molecule `CCOc1ncccc1-c1ccc(C2(C(=O)N[C@H]3CCN(C)C3)CCN(c3ccc(C(F)(F)F)cc3C#N)CC2)cn1` [Compound 1-11, 1-[2-cyano-4-(trifluoromethyl)phenyl]-4-{2′-ethoxy-[2,3′-bipyridin]-5-yl}-N-[(3S)-1-methylpyrrolidin-3-yl]piperidine-4-carboxamide], the Ki is < 10 nM.

As to `CN1CC[C@H]1CNC(=O)C1(c2ccc(-c3cccn3C)nc2)CCN(c2ccc(C(F)(F)F)cc2C#N)CC1` [Compound 1-241, 1-[2-cyano-4-(trifluoromethyl)phenyl]-4-[6-(1-methyl-1H-pyrrol-2-yl)pyridin-3-yl]-N-{[(2S)-1-methylazetidin-2-yl]methyl}piperidine-4-carboxamide], the Ki was < 10 nM. Regarding `CCOc1ccccc1-c1ccc(C2(NC(=O)CCN(C)C)CCN(c3ccc(Cl)cc3C#N)CC2)cn1` [Compound 2-30, N-[1-(4-chloro-2-cyanophenyl)-4-[6-(2-ethoxyphenyl)pyridin-3-yl]piperidin-4-yl]-3-(dimethylamino)propanamide], the Ki was < 10 nM. As to `CCOc1ncccc1-c1ccc(C2(C(=O)N[C@@H]3CCN(C)C3)CCN(c3ccc(C(F)(F)F)cc3C)CC2)cc1` [Compound 1-164, 4-[4-(2-ethoxypyridin-3-yl)phenyl]-1-[2-methyl-4-(trifluoromethyl)phenyl]-N-[(3R)-1-methylpyrrolidin-3-yl]piperidine-4-carboxamide], the Ki was in the range of 10 to 100 nM.

For `CN1CC[C@H](NC(=O)NC2(c3ccc(-c4cccn4C)nc3)CCN(c3ccc(C(F)(F)F)cc3C#N)CC2)C1` [Compound 2-43, 1-{1-[2-cyano-4-(trifluoromethyl)phenyl]-4-[6-(1-methyl-1H-pyrrol-2-yl)pyridin-3-yl]piperidin-4-yl}-3-[(3S)-1-methylpyrrolidin-3-yl]urea], the Ki is < 10 nM.

With `COc1ccc(C)cc1-c1ccc(C2(C(=O)N[C@@H]3CCN(C)C3)CCN(c3ccc(C(F)(F)F)cc3C#N)CC2)cn1` [Compound 1-130, 1-[2-cyano-4-(trifluoromethyl)phenyl]-4-[6-(2-methoxy-5-methylphenyl)pyridin-3-yl]-N-[(3R)-1-methylpyrrolidin-3-yl]piperidine-4-carboxamide], the Ki is < 10 nM. As for `CNCCNC(=O)C1(c2ccc(-c3ccccc3OC)nc2)CCN(c2ccc(C(F)(F)F)cc2F)CC1` [Compound 1-256, 1-[2-fluoro-4-(trifluoromethyl)phenyl]-4-[6-(2-methoxyphenyl)pyridin-3-yl]-N-[2-(methylamino)ethyl]piperidine-4-carboxamide], the Ki is < 10 nM. In the case of `CN1CC[C@H](NC(=O)C2(c3ccc(-c4ccccc4C(F)F)nc3)CCN(c3ccc(C(F)(F)F)cc3C#N)CC2)C1` [Compound 1-151, 1-[2-cyano-4-(trifluoromethyl)phenyl]-4-{6-[2-(difluoromethyl)phenyl]pyridin-3-yl}-N-[(3S)-1-methylpyrrolidin-3-yl]piperidine-4-carboxamide], the Ki was < 10 nM. Next, `CCOc1ncccc1-c1ccc(C2(C(=O)N[C@@H](C)CNC)CCN(c3ccc(C(F)(F)F)cc3F)CC2)cn1` [Compound 1-321, 4-{2′-ethoxy-[2,3′-bipyridin]-5-yl}-1-[2-fluoro-4-(trifluoromethyl)phenyl]-N-[(2S)-1-(methylamino)propan-2-yl]piperidine-4-carboxamide]: < 10 nM.
